Measured values: patent publication US5049673A, “Fluorescent indicator dyes for calcium working at long wavelengths” (The Regents of the University of California, priority 1987, dated 1991)
Like-named read-outs stand apart in the source and are kept apart here.

What was measured:
[1] = Calibration of [Ca2+] increases produced by UV photolysis of nitr-5 or nitr-7; conditions: results not shown
Source text: The most obvious difference between the present chelators and the previous tetracarboxylate Ca^2+ chelators is in their wavelengths of fluorescence excitation and emission. The new indicators' similarity to fluoresceins and rhodamines make them optically compatible with almost any fluorometer, fluorescence microscope, or flow cytometer already used for immunofluorescence detection. The fluorescein analogs fluo-1, -2, and -3 can be excited by incandescent illumination or the prominent 488 nm line of an […]. The rhodamine analogs rhod-1 rhod-2 are suited to incandescent illumination, the 531 nm line of a krypton-ion laser, or the 546 nm line of a mercury arc. By contrast, the earlier dyes quin-2 and fura-2 are best excited at 340-350 or 380-390 nm from a xenon lamp. Indo-1 does best with 350-360 nm from a xenon arc or the low-power UV lines of argon or krypton lasers. Optical elements for these UV wavelengths are preferably reflective or are made from quartz, glasses with enhanced UV transmission, or very thin ordinary glass. Plastics or thick (>1 mm) ordinary glass elements generally give too much absorbance or autofluorescence or both. By contrast, even these cheap optical materials are compatible with blue or green excitation.

[2] = room temperature, 0.1 M KCl, no added Mg^2+; read-out: Ca^2+ dissociation constant (Kd) used for FIG. 6; cited from earlier work
[3] = pH 7.03, 100 mM KCl, 20° C; read-out: Apparent dissociation constant for the Ca^2+ complex; cited from earlier work
[4] = pH 7.60, 0.12 M ionic strength, 20°; read-out: Apparent dissociation constant for the Mg^2+ complex (including monoprotonated form); cited from earlier work

| SMILES | Effect of excitation wavelengths on "caged" calcium [1] | Kd [2] [nM] | Kd [3] [nM] | Kd [4] [mM] |
| --- | --- | --- | --- | --- |
| Cc1ccc(N(CC(=O)O)CC(=O)O)c(OCCOc2cc3cc(-c4ncc(C(=O)O)o4)oc3cc2N(CC(=O)O)CC(=O)O)c1 [fura-2] | the excitation wavelengths began to photolyze the "caged" calcium | 135 | – | – |
| O=C(O)CN(CCOCCOCCN(CC(=O)O)CC(=O)O)CC(=O)O [EGTA, ethylene glycol bis(-beta-aminoethyl ether)-N,N,N',N'-tetraacetic acid] | – | – | 327 | 6 |
